Laboratory results reported in patent US12215129B2, “Antibacterial cyclopeptides targeting acinetobacter and other gram-negative pathogens” (priority 2020, dated 2025).
Converted amounts (≈) assume the structure as drawn. “And” between values parts separate entries of the source, which are not always exact repeats. Identical values can stand only once. Like-named read-outs stand apart in the source and are kept apart here. Marks after values point to notes of the source that are not given here. Starred links: 1 amine or outer side, 2 acyl side, 3 side chain; linkers in the order of their positions; H or OH if unused. Positions of bridges follow the written chain, without caps; N, C: chain ends. Non-standard residues stand in square brackets, D forms with d. Residues, ends and D or L forms follow the SMILES beside them. *: point of attachment. dAsp(3R-OH) = N[C@@H](C(=O)O)[C@@H](O)C(=O)O; Palmitoleoyl = CCCCCC/C=C\CCCCCCCC(=O)*; X1 = NC[C@H](O)[C@@H](N[*:1])C(=O)[*:2]; X2 = CCC(C)(O)[C@H](N[*:1])C(=O)[*:2]; d(aIle) = CC[C@H](C)[C@@H](N)C(=O)O; Myristoyl = CCCCCCCCCCCCCC(=O)*; dOrn = NCCC[C@@H](N)C(=O)O; hSer = N[C@@H](CCO)C(=O)O

Experiments:
[1] = tested on: Escherichia coli; format: cell-based
[2] = tested on: Klebsiella pneumoniae (ATCC BAA-1705); format: cell-based
[3] = tested on: A. baylyi; format: cell-based, Acinetobacter baylyi; details: for sensitivity of Δ1ptE A. baylyi strain: at 8 μg/mL; for MIC against A. baylyi compared with A. baumannii: nonpathogenic relative A. baylyi; for nature of growth inhibition: plating of inhibited wells from A. baylyi broth cultures
[4] = tested on: Acinetobacter baumannii (ATCC 19606)
[5] = tested on: Enterococcus faecalis (ATCC 29212)
[6] = tested on: Staphylococcus aureus
[7] = tested on: HEK-293 cells
[8] = tested on: mouse red blood cell
[9] = human, in vivo; cited from earlier work
[10] = tested on: A. baumannii ATCC 17978; assay: Thigh infection neutropenic mouse model, efficacy (CFU/thigh); format: in vivo, Acinetobacter baumannii; details: for Decrease (%) / Δ / CFU/thigh Time post inoculation 2, 26 h / Log (CFU/thigh) Time post inoculation 2, 26 h / CFU/thigh Time post inoculation 2, 26 h, Mean / Log (CFU/thigh) Time post inoculation 2, 26 h, Mean / Dilution (CFU/plate) 0 / Dilution (CFU/plate) 10^1 / Dilution (CFU/plate) 10^2 / Dilution (CFU/plate) 10^3 / Dilution (CFU/plate) 10^4 / Dilution (CFU/plate) 10^5 / Dilution (CFU/plate) 10^6: BID, q12h; for Decrease (%) / Δ / CFU/thigh Time post inoculation 2, 26 h / Log (CFU/thigh) Time post inoculation 2, 26 h / CFU/thigh Time post inoculation 2, 26 h, Mean / Log (CFU/thigh) Time post inoculation 2, 26 h, Mean: 26 h; for Decrease (%): decrease in counts compared to the vehicle group; for Δ: difference in bacterial counts relative to the baseline group (2 h initial counts); for CFU/thigh Time post inoculation 2, 26 h / Log (CFU/thigh) Time post inoculation 2, 26 h: individual animals; for CFU/thigh Time post inoculation 2, 26 h, Mean / Log (CFU/thigh) Time post inoculation 2, 26 h, Mean: mean of 5 animals; for Dilution (CFU/plate) 0 / Dilution (CFU/plate) 10^1 / Dilution (CFU/plate) 10^2 / Dilution (CFU/plate) 10^3 / Dilution (CFU/plate) 10^4 / Dilution (CFU/plate) 10^5 / Dilution (CFU/plate) 10^6: raw data; for Dilution (CFU/plate) 0: dilution 0, individual animals; for Dilution (CFU/plate) 10^1: dilution 10^1, individual animals; for Dilution (CFU/plate) 10^2: dilution 10^2, individual animals; for Dilution (CFU/plate) 10^3: dilution 10^3, individual animals; for Dilution (CFU/plate) 10^4: dilution 10^4, individual animals; for Dilution (CFU/plate) 10^5: dilution 10^5, individual animals; for Dilution (CFU/plate) 10^6: dilution 10^6, individual animals
[11] = tested on: clinical A. baumannii complex isolates

## CCCCCC/C=C\CCCCCCCC(=O)N[C@H](CCCN)C(=O)N[C@@H](CO)C(=O)N[C@H](C(=O)N[C@@H](C(=O)N[C@@H](C(=O)N[C@@H]1C(=O)NCC(=O)N[C@@H](C(C)(O)CC)C(=O)N[C@H]([C@@H](C)CC)C(=O)N[C@@H](CCO)C(=O)N[C@@H](C)C(=O)N[C@H]([C@@H](C)CC)C(=O)N[C@@H](CCC(=O)O)C(=O)O[C@@H]1C)[C@@H](O)CN)[C@@H](O)C(=O)O)C(C)C (stereo partly drawn) [Compound 2, Turnercyclamycin B] (Palmitoleoyl-[dOrn]SV[dAsp(3R-OH)][X1]TG[X2][d(aIle)][hSer]A[d(aIle)]E; ester 6-C)
[1]
  MIC90: 1 µg/mL (≈ 0.625 µM)
[2]
  MIC90: 2 µg/mL (≈ 1.25 µM)
[3]
  sensitivity of Δ1ptE A. baylyi strain: still sensitive
  MIC against A. baylyi compared with A. baumannii: same MIC
  nature of growth inhibition: bactericidal, not bacteriostatic
[4]
  MIC90: 8 µg/mL (≈ 5 µM)
[4]; ATCC 19606
  MIC: 8 µg/mL (≈ 5 µM)
[5]
  MIC90: >64 µg/mL
[6]
  MIC90: >64 µg/mL
  decrease of Staphylococcus aureus growth: 50%
[7]
  IC50 against HEK-293: failed to calculate an IC50 value
[8]
  hemolytic activity, no activity up to: > 64 µg/mL

## CCCCCCCCCC(=O)N[C@@H](Cc1c[nH]c2ccccc12)C(=O)N[C@H](CC(N)=O)C(=O)N[C@@H](CC(=O)O)C(=O)N[C@@H]1C(=O)NCC(=O)N[C@@H](CCCN)C(=O)N[C@@H](CC(=O)O)C(=O)N[C@H](C)C(=O)N[C@@H](CC(=O)O)C(=O)NCC(=O)N[C@H](CO)C(=O)N[C@@H]([C@H](C)CC(=O)O)C(=O)N[C@@H](CC(=O)c2ccccc2N)C(=O)O[C@@H]1C [Daptomycin]
[9]
  Half Life: ~8 h
  Vss: ~0.1 L/kg
  clearance: ~9 mL/h/kg

## Colistin [reference compound]
[10]; 30 mg/kg SC
  Decrease (%): 100%
  Δ: −2.73^#
  CFU/thigh Time post inoculation 2, 26 h: 1.77 × 10^3 CFU/thigh and 5.73 × 10^3 CFU/thigh and 5.64 × 10^3 CFU/thigh and 1.98 × 10^3 CFU/thigh and 3.57 × 10^3 CFU/thigh
  Log (CFU/thigh) Time post inoculation 2, 26 h: 3.25 Log (CFU/thigh) and 3.76 Log (CFU/thigh) and 3.75 Log (CFU/thigh) and 3.30 Log (CFU/thigh) and 3.55 Log (CFU/thigh)
  CFU/thigh Time post inoculation 2, 26 h, Mean: 3.74 × 10^3 CFU/thigh
  Log (CFU/thigh) Time post inoculation 2, 26 h, Mean: 3.52* Log (CFU/thigh)
  Dilution (CFU/plate) 0: 59 CFU/plate and 191 CFU/plate and 188 CFU/plate and 66 CFU/plate and 119 CFU/plate
  Dilution (CFU/plate) 10^1: 3 CFU/plate and 20 CFU/plate and 21 CFU/plate and 8 CFU/plate and 13 CFU/plate
  Dilution (CFU/plate) 10^2: 0 CFU/plate (3×) and 1 CFU/plate (2×)
  Dilution (CFU/plate) 10^3: 0 CFU/plate
[4]
  MIC: 2 µg/mL
[11]; ARUP ABC 1
  MIC: 4 µg/mL
[11]; ARUP ABC 2
  MIC: 4 µg/mL
[11]; ARUP ABC 3
  MIC: >32 µg/mL
[11]; CDC AB282
  MIC: 1 µg/mL
[11]; CDC AB286
  MIC: 1 µg/mL
[11]; CDC AB299
  MIC: 2 µg/mL
[11]; CDC AB302
  MIC: 2 µg/mL
[11]; CDC AB303
  MIC: >32 µg/mL
[11]; CDC AB307
  MIC: 8 µg/mL

## CCCCCCCCCCCCCC(=O)N[C@H](CCCN)C(=O)N[C@@H](CO)C(=O)N[C@H](C(=O)N[C@@H](C(=O)N[C@@H](C(=O)N[C@@H]1C(=O)NCC(=O)N[C@@H](C(C)(O)CC)C(=O)N[C@H]([C@@H](C)CC)C(=O)N[C@@H](CCO)C(=O)N[C@@H](C)C(=O)N[C@H]([C@@H](C)CC)C(=O)N[C@@H](CCC(=O)O)C(=O)O[C@@H]1C)[C@@H](O)CN)[C@@H](O)C(=O)O)C(C)C (stereo partly drawn) [Compound 1, Turnercyclamycin A] (Myristoyl-[dOrn]SV[dAsp(3R-OH)][X1]TG[X2][d(aIle)][hSer]A[d(aIle)]E; ester 6-C)
[1]
  MIC90: 1 µg/mL (≈ 0.636 µM)
[2]
  MIC90: 2 µg/mL (≈ 1.27 µM)
[3]
  sensitivity of Δ1ptE A. baylyi strain: still sensitive
  MIC against A. baylyi compared with A. baumannii: same MIC
  nature of growth inhibition: bactericidal, not bacteriostatic
[10]; 6.25 mg/kg IV
  Decrease (%): 27%
  Δ: 2.27
  CFU/thigh Time post inoculation 2, 26 h: 4.59 × 10^7 CFU/thigh and 3.63 × 10^7 CFU/thigh and 4.62 × 10^7 CFU/thigh and 6.93 × 10^7 CFU/thigh and 7.71 × 10^7 CFU/thigh
  Log (CFU/thigh) Time post inoculation 2, 26 h: 7.66 Log (CFU/thigh) (2×) and 7.56 Log (CFU/thigh) and 7.84 Log (CFU/thigh) and 7.89 Log (CFU/thigh)
  CFU/thigh Time post inoculation 2, 26 h, Mean: 5.50 × 10^7 CFU/thigh
  Log (CFU/thigh) Time post inoculation 2, 26 h, Mean: 7.72 Log (CFU/thigh)
  Dilution (CFU/plate) 0: >300 CFU/plate
  Dilution (CFU/plate) 10^1: >300 CFU/plate
  Dilution (CFU/plate) 10^2: >300 CFU/plate
  Dilution (CFU/plate) 10^3: >300 CFU/plate
  Dilution (CFU/plate) 10^4: 153 CFU/plate and 121 CFU/plate and 154 CFU/plate and 231 CFU/plate and 257 CFU/plate
  Dilution (CFU/plate) 10^5: 21 CFU/plate and 9 CFU/plate and 16 CFU/plate and 24 CFU/plate and 26 CFU/plate
  Dilution (CFU/plate) 10^6: 3 CFU/plate (2×) and 1 CFU/plate and 0 CFU/plate and 2 CFU/plate
[10]; 12.5 mg/kg IV twice daily, p<0.05, CFU at 26 hours
  decrease in bacterial CFU/thigh: 98%
[10]; 12.5 mg/kg IV
  Decrease (%): 98%
  Δ: 0.10
  CFU/thigh Time post inoculation 2, 26 h: 5.67 × 10^5 CFU/thigh and 7.02 × 10^6 CFU/thigh and 7.89 × 10^5 CFU/thigh and 1.32 × 10^5 CFU/thigh and 1.35 × 10^4 CFU/thigh
  Log (CFU/thigh) Time post inoculation 2, 26 h: 5.75 Log (CFU/thigh) and 6.85 Log (CFU/thigh) and 5.90 Log (CFU/thigh) and 5.12 Log (CFU/thigh) and 4.13 Log (CFU/thigh)
  CFU/thigh Time post inoculation 2, 26 h, Mean: 1.70 × 10^6 CFU/thigh
  Log (CFU/thigh) Time post inoculation 2, 26 h, Mean: 5.55* Log (CFU/thigh)
  Dilution (CFU/plate) 0: >300 CFU/plate
  Dilution (CFU/plate) 10^1: >300 CFU/plate (4×) and 45 CFU/plate
  Dilution (CFU/plate) 10^2: 189 CFU/plate and >300 CFU/plate and 263 CFU/plate and 44 CFU/plate and 4 CFU/plate
  Dilution (CFU/plate) 10^3: 12 CFU/plate and 234 CFU/plate and 24 CFU/plate and 2 CFU/plate and 0 CFU/plate
  Dilution (CFU/plate) 10^4: 0 CFU/plate (2×) and 1 CFU/plate and 28 CFU/plate and 2 CFU/plate
  Dilution (CFU/plate) 10^5: 0 CFU/plate (4×) and 1 CFU/plate
  Dilution (CFU/plate) 10^6: 0 CFU/plate
[10]; 25 mg/kg IV twice daily, CFU at 26 hours
  clearing of bacterial CFU/thigh: 99.99%
[10]; 25 mg/kg IV
  Decrease (%): 100%
  Δ: −1.65^#
  CFU/thigh Time post inoculation 2, 26 h: 5.91 × 10^3 CFU/thigh and 7.68 × 10^3 CFU/thigh and 8.76 × 10^3 CFU/thigh and 1.38 × 10^4 CFU/thigh and 1.89 × 10^3 CFU/thigh
  Log (CFU/thigh) Time post inoculation 2, 26 h: 3.77 Log (CFU/thigh) and 3.89 Log (CFU/thigh) and 3.94 Log (CFU/thigh) and 4.14 Log (CFU/thigh) and 3.28 Log (CFU/thigh)
  CFU/thigh Time post inoculation 2, 26 h, Mean: 7.61 × 10^3 CFU/thigh
  Log (CFU/thigh) Time post inoculation 2, 26 h, Mean: 3.80* Log (CFU/thigh)
  Dilution (CFU/plate) 0: 197 CFU/plate and 256 CFU/plate and 292 CFU/plate and >300 CFU/plate and 63 CFU/plate
  Dilution (CFU/plate) 10^1: 26 CFU/plate and 32 CFU/plate and 29 CFU/plate and 46 CFU/plate and 8 CFU/plate
  Dilution (CFU/plate) 10^2: 3 CFU/plate (2×) and 1 CFU/plate (2×) and 4 CFU/plate
  Dilution (CFU/plate) 10^3: 0 CFU/plate
  Dilution (CFU/plate) 10^4: 0 CFU/plate
  Dilution (CFU/plate) 10^5: 0 CFU/plate
  Dilution (CFU/plate) 10^6: 0 CFU/plate
[4]
  MIC90: 8 µg/mL (≈ 5.09 µM)
[4]; ATCC 19606
  MIC: 8 µg/mL (≈ 5.09 µM)
[5]
  MIC90: >64 µg/mL
[6]
  MIC90: >64 µg/mL
  decrease of Staphylococcus aureus growth: 50%
